Calls of active or inactive are those of the source. The rule behind the calls is not given here.
Legend:
[1] = molecular target: Signal transducer and activator of transcription 3 (Homo sapiens) (UniProt P40763); assay: Inhibition of STAT3 in human AGS cells assessed as inhibition of total STAT3 protein level at 0.3 to 3 uM by western blot assay; type: cell-based; conditions: dose 0.3-3 µM
AGS [2] = assay: Induction of apoptosis in human AGS cells assessed as late apoptotic cells at 0.3 uM incubated for 48 hrs by Annexin V-FITC/PI staining based flow cytometry method (reference value: 2.46 %); type: functional
[3] = Toxicity in BALB/c mouse xenografted with human MGC-803 cells assessed as morphological change in heart at 5 mg/kg,ip administrated for 21 consecutive days by hematoxylin and eosin staining method; type: organism-based; conditions: in vivo
[4] = Toxicity in BALB/c mouse xenografted with human MGC-803 cells assessed as body weight loss at 15 mg/kg,ip administrated for 21 consecutive days; type: organism-based; conditions: in vivo
[5] = molecular target: Signal transducer and activator of transcription 3 (Homo sapiens) (UniProt P40763); assay: Inhibition of STAT3 (unknown origin) transcriptional signaling transfected in HEK293T cells at 3 uM incubated for 24 hrs by firefly luciferase gene reporter assay; type: cell-based
AGS [6] = assay: Antiproliferative activity against human AGS cells assessed as reduction in cell viability incubated for 72 hrs by CCK-8 assay; type: functional, cell-based
AGS [7] = assay: Induction of apoptosis in human AGS cells assessed as early apoptotic cells at 1 uM incubated for 48 hrs by Annexin V-FITC/PI staining based flow cytometry method (reference value: 2.38 %); type: functional
AGS [8] = assay: Induction of apoptosis in human AGS cells assessed as late apoptotic cells at 1 uM incubated for 48 hrs by Annexin V-FITC/PI staining based flow cytometry method (reference value: 2.46 %); type: functional
[9] = molecular target: Signal transducer and activator of transcription 3 (Homo sapiens) (UniProt P40763); assay: In vivo inhibition of STAT3 in BALB/c mouse xenografted with human MGC-803 cells assessed as reduction of STAT3 phosphorylation level at Tyr705 in tumor at 15 mg/kg,ip administrated for 21 consecutive days by immunohistochemistry analysis; type: functional, organism-based
MGC-803 [10] = assay: Antitumor activity against human MGC-803 cells xenografted in BALB/c mouse assessed as tumor growth inhibition at 5 mg/kg,ip administrated for 21 consecutive days relative to control; type: functional; conditions: read-out: TGI
[11] = molecular target: Signal transducer and activator of transcription 3 (Homo sapiens) (UniProt P40763); assay: Inhibition of STAT3 in human AGS cells assessed as reduction of Mcl-1 protein expression level at 0.3 to 3 uM by western blot assay; type: cell-based; conditions: dose 0.3-3 µM
MGC-803 [12] = assay: Inhibition of cell migration in human MGC-803 cells at 0.03 to 0.3 uM incubated for 48 hrs by wound healing assay based microscopic analysis; type: functional; conditions: dose 0.03-0.3 µM
AGS [13] = assay: Inhibition of cell migration in human AGS cells at 0.03 to 0.3 uM incubated for 48 hrs by wound healing assay based microscopic analysis; type: functional; conditions: dose 0.03-0.3 µM
[14] = molecular target: Signal transducer and activator of transcription 3 (Homo sapiens) (UniProt P40763); assay: In vivo inhibition of STAT3 in BALB/c mouse xenografted with human MGC-803 cells assessed as reduction of STAT3 phosphorylation level at Tyr705 in tumor at 5 mg/kg,ip administrated for 21 consecutive days by immunohistochemistry analysis; type: functional, organism-based
AGS [15] = assay: Induction of apoptosis in human AGS cells assessed as necrotic cells at 0.3 uM incubated for 48 hrs by Annexin V-FITC/PI staining based flow cytometry method (reference value: 0.32 %); type: functional
AGS [16] = assay: Induction of apoptosis in human AGS cells assessed as early apoptotic cells at 3 uM incubated for 48 hrs by Annexin V-FITC/PI staining based flow cytometry method (reference value: 2.38 %); type: functional
[17] = molecular target: Signal transducer and activator of transcription 3 (Homo sapiens) (UniProt P40763); assay: Inhibition of STAT3 in human AGS cells assessed as inhibition of STAT3 phosphorylation level at Tyr705 at 0.3 to 3 uM by western blot assay; type: cell-based; conditions: dose 0.3-3 µM
MGC-803 [18] = assay: Antitumor activity against human MGC-803 cells xenografted in BALB/c mouse assessed as inhibition of tumor weight at 5 to 15 mg/kg,ip administrated for 21 consecutive days; type: functional, organism-based; conditions: dose 5-15 mg/kg
[19] = Toxicity in BALB/c mouse xenografted with human MGC-803 cells assessed as morphological change in liver at 15 mg/kg,ip administrated for 21 consecutive days by hematoxylin and eosin staining method; type: organism-based; conditions: in vivo
[20] = molecular target: Signal transducer and activator of transcription 3 (Homo sapiens) (UniProt P40763); assay: In vivo inhibition of STAT3 in BALB/c mouse xenografted with human MGC-803 cells assessed as reduction of c-Myc expression in tumor at 5 mg/kg,ip administrated for 21 consecutive days by immunohistochemistry analysis; type: functional, organism-based
MGC-803 [21] = assay: Antitumor activity against human MGC-803 cells xenografted in BALB/c mouse assessed as reduction of Ki67 expression level in tumor at 5 mg/kg,ip administrated for 21 consecutive days by immunohistochemistry analysis; type: functional, organism-based
[22] = Toxicity in BALB/c mouse xenografted with human MGC-803 cells assessed as morphological change in kidney at 15 mg/kg,ip administrated for 21 consecutive days by hematoxylin and eosin staining method; type: organism-based; conditions: in vivo
AGS [23] = assay: Induction of apoptosis in human AGS cells assessed as necrotic cells at 3 uM incubated for 48 hrs by Annexin V-FITC/PI staining based flow cytometry method (reference value: 0.32 %); type: functional
[24] = Toxicity in BALB/c mouse xenografted with human MGC-803 cells assessed as body weight loss at 5 mg/kg,ip administrated for 21 consecutive days; type: organism-based; conditions: in vivo
MGC-803 [25] = assay: Antiproliferative activity against human MGC-803 cells assessed as reduction in cell viability incubated for 72 hrs by CCK-8 assay; type: functional, cell-based; conditions: MGC-803, 72 h
[26] = Toxicity in BALB/c mouse xenografted with human MGC-803 cells assessed as morphological change in spleen at 5 mg/kg,ip administrated for 21 consecutive days by hematoxylin and eosin staining method; type: organism-based; conditions: in vivo
AGS [27] = assay: Inhibition of colony formation in human AGS cells at 0.3 to 3 uM incubated for 10 to 15 days by crystal violet staining based assay; type: functional, cell-based; conditions: dose 0.3-3 µM, time 10-15 day
[28] = Toxicity in BALB/c mouse xenografted with human MGC-803 cells assessed as morphological change in lung at 5 mg/kg,ip administrated for 21 consecutive days by hematoxylin and eosin staining method; type: organism-based; conditions: in vivo
AGS [29] = assay: Inhibition of cell invasion in human AGS cells at 0.03 to 0.3 uM incubated for 12 hrs by crystal violet staining based transwell assay; type: functional; conditions: dose 0.03-0.3 µM
AGS [30] = assay: Induction of apoptosis in human AGS cells assessed as early apoptotic cells at 0.3 uM incubated for 48 hrs by Annexin V-FITC/PI staining based flow cytometry method (reference value: 2.38 %); type: functional
[31] = molecular target: Signal transducer and activator of transcription 3 (Homo sapiens) (UniProt P40763); assay: In vivo inhibition of STAT3 in BALB/c mouse xenografted with human MGC-803 cells assessed as reduction of Mcl-1 expression in tumor at 15 mg/kg,ip administrated for 21 consecutive days by immunohistochemistry analysis; type: functional, organism-based
[32] = molecular target: Signal transducer and activator of transcription 3 (Homo sapiens) (UniProt P40763); assay: Inhibition of STAT3 in human MGC-803 cells assessed as inhibition of STAT3 phosphorylation level at Tyr705 at 0.3 to 3 uM by western blot assay; type: cell-based; conditions: dose 0.3-3 µM
[33] = Toxicity in BALB/c mouse xenografted with human MGC-803 cells assessed as morphological change in heart at 15 mg/kg,ip administrated for 21 consecutive days by hematoxylin and eosin staining method; type: organism-based; conditions: in vivo
AGS [34] = assay: Induction of apoptosis in human AGS cells assessed as viable cells at 3 uM incubated for 48 hrs by Annexin V-FITC/PI staining based flow cytometry method (reference value: 94.8 %); type: functional; conditions: read-out: Activity

Sequence of Signal transducer and activator of transcription 3 (Homo sapiens) (P40763 whole entry): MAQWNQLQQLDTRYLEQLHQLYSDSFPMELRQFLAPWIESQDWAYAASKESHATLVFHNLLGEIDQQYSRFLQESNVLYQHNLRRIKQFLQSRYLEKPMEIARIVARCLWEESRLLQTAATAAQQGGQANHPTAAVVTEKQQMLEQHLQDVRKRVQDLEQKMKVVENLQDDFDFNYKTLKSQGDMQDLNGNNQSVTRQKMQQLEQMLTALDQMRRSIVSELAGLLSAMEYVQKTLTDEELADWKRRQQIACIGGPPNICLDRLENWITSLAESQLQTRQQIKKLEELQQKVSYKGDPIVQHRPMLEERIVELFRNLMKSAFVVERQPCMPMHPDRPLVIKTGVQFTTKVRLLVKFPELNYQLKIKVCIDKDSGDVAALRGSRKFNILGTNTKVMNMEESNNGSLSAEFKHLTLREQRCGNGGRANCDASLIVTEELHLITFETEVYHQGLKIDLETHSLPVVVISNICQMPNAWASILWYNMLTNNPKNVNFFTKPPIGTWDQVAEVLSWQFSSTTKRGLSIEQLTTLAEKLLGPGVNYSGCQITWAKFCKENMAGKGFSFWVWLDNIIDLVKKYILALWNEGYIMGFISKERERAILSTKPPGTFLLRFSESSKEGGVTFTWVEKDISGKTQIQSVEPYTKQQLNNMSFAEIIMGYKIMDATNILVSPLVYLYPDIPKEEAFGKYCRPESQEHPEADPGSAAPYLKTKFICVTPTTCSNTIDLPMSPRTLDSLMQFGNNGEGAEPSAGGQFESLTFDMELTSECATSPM

In the case of `Cc1cc(NC(=O)c2ccc([N+](=O)[O-])o2)ccc1-c1cnc2ccccn12`, the inhibition [1] is reported as “inactive”, the Activity (AGS [2]) is reported as 3.15% and the Activity [3] is reported as “Non-Toxic”. The Activity [4] was “Non-Toxic”, the inhibition [5] was “Active” and the IC50 (AGS [6]) was 390 nM. For the same compound, the Activity (AGS [7]) was 4.52%, the Activity (AGS [8]) was 2.67% and the inhibition [9] was “Active”. For the same compound, the inhibition in vivo at 5 mg/kg (MGC-803 [10]) was 47.1%, the inhibition [11] was “Active” and the inhibition (MGC-803 [12]) was “Dose-Dependent Effect”. The inhibition (AGS [13]) was “Dose-Dependent Effect”, the inhibition [14] was “Active” and the Activity (AGS [15]) was 0.62%. The Activity (AGS [16]) was 12.1%, the inhibition [17] was “Dose-Dependent Effect” and the inhibition (MGC-803 [18]) was “Dose-Dependent Effect”. The Activity [19] was “Non-Toxic”, the inhibition [20] was “Active” and the inhibition (MGC-803 [21]) was “Active”. For the same compound, the Activity [22] was “Non-Toxic”, the Activity (AGS [23]) was 0.18% and the Activity [24] was “Non-Toxic”. For the same compound, the IC50 (MGC-803 [25]) was 900 nM, the Activity [26] was “Non-Toxic” and the inhibition (AGS [27]) was “Dose-Dependent Effect”. The Activity [28] was “Non-Toxic”, the inhibition (AGS [29]) was “Active” and the Activity (AGS [30]) was 2.49%. For the same compound, the inhibition [31] was “Active”, the inhibition [32] was “Dose-Dependent Effect” and the Activity [33] was “Non-Toxic”. The viability at 3 µM (AGS [34]) was 81.3%.

Reference: ChEMBL document CHEMBL5247622, “Structural optimization of Imidazo[1, 2-a]pyridine derivatives for the treatment of gastric cancer via STAT3 signaling pathway” (Eur J Med Chem, 2022)
